Counter-ions that a name gives are not always drawn.
Biological target: Sfp-PPTase (Bacillus subtilis, UniProt P39135)
Test: Rhodamine/BHQ-2 dark quench assay
Type: biochemical

Chain of Sfp-PPTase (P39135 whole entry): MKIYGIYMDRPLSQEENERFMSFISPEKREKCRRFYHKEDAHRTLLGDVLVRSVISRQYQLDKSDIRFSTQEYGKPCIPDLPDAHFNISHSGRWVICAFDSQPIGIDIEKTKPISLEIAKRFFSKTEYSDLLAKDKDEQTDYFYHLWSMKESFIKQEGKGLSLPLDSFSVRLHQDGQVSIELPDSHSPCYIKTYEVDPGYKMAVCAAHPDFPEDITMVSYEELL

IC50: 14.6 µM
SMILES: Nc1ncnc2c1ncn2[C@@H]1O[C@H](COP(=O)(O)O)[C@@H](OP(=O)(O)O)[C@H]1O [PAP 3, adenosine 3′, 5′-diphosphate sodium salt]
